Test results reported in US9834549B2, “3,3-disubstituted-(8-aza-bicyclo[3.2.1]OCT-8-yl)-[5-(1H-pyrazol-4-yl)-thiophen-3-yl]-methanones as inhibitors of 11 (β)-HSD1” (The University Of Edinburgh, priority 2010, dated 2017).
Read-outs that look alike come from different tables or passages of the source.

What was measured:
human 11β-HSD1 = target: T1, human 11β-HSD1 (Homo sapiens, UniProt P28845); experiment: Cellular in vitro 11β-HSD1 enzyme inhibition assay (SPA, HEK293/11β-HSD1 cells); assay type: cell-based
T1 construct: stably transfected with a construct containing the full-length gene coding for the human 11β-HSD1 enzyme; expressed in transfected cells; host or cells: HEK293 (stably transfected, HEK293/11β-HSD1)
T1 sequence (P28845 whole entry): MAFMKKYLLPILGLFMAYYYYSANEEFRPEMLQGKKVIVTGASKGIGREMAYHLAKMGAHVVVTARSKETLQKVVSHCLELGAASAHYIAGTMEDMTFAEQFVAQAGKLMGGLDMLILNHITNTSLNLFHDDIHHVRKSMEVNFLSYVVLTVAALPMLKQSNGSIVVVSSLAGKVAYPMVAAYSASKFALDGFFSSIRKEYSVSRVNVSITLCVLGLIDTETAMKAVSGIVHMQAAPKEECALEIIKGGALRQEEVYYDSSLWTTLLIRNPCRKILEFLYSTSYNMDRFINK
Protocol: Compounds were assessed by a Scintillation Proximity Assay (SPA) performed according to the following protocol:
HEK293 cells were stably transfected with a construct containing the full-length gene coding for the human 11β-HSD1 enzyme to create HEK293/11β-HSD1 cells. Cells were routinely cultured in DMEM containing 10% calf foetal serum, 1% glutamine, and 1% penicillin and streptomycin. Prior to assay, cells were plated at 2×10^4 cells/well in 96-well poly-D-Lys coated flat-bottomed microplates and incubated in 5% CO2, 95% O2 at 37° C. for 24 hours. The media in each well was removed immediately before assay.
Compounds to be tested were dissolved in DMSO at 10 mM and serially diluted into water containing 10% DMSO. Diluted compounds at a volume of 10 μL were added to wells of a 96-well V-bottomed microplate. A solution of DMEM, 1% glutamine, 1% penicillin and streptomycin, and 22 nM tritiated cortisone was prepared and 90 μL added to each well of the assay plate. This solution (100 μL/well) was transferred to the plate containing the cells. The plate was then incubated in 5% CO2, 95% O2 at 37° C. for 2 hours.
Following this incubation, 50 μL of the assay solution was transferred to each well of a 96-well scintillation microplate. A mixture consisting of anti-mouse YSi SPA beads, pre-mixed with anti-cortisol antibody in assay buffer (50 mM Tris.HCl, pH 7.0; 300 mM NaCl; 1 mM EDTA, 5% glycerol) was prepared and 50 μL added to each well of the scintillation microplate. An adhesive strip was applied to the microplate and the plate gently shaken for at least 2 hours at room temperature, and then spun briefly on a low speed centrifuge. The plate was read on a scintillation counter suitable for 96-well microplates. For the calculation of percentage inhibition, a series of wells were added to the plate that represented the assay maximum and the assay minimum: one set that contained substrate without cells (minimum) and another set that contained substrate and cells without any compound (maximum).
The calculation of median inhibitory concentration (IC50) values for the compounds was performed using GraphPad Prism® software. Dose-response curves for each compound were plotted as fractional inhibition and data fitted to the four parameter logistic equation.

Pharmacokinetics in rat = assay type: in vivo, male Sprague Dawley rats; conditions: male, Sprague Dawley, intravenous 1 mg/kg and oral 5 mg/kg; for bioavailability: blood, read-out: % F (% bioavailability); for clearance: plasma, read-out: Cl (plasma clearance)
Protocol: The pharmacokinetic parameters of certain compounds were determined following intravenous (1 mg/kg) and oral (5 mg/kg) administration to male Sprague Dawley rats. Dosing solution was prepared by mixing each compound with 2% DMSO, 38% PEG-400 and 60% (0.9%) NaCl. Solutions were passed through 0.2 μm filters prior to administration.
Following dosing and at appropriate time points, blood samples were taken from a lateral tail vein and transferred into a tube pre-treated with EDTA. Blood samples were analysed for parent compound by LCMS and the quantity of parent compound remaining determined. Non-compartmental analysis was applied to the data using WinNonlin™ software to determine the pharmacokinetic parameters for each compound.

[1] = In vitro human liver microsomal stability assay; assay type: in vitro ADME; conditions: human liver microsomes
Protocol: To predict in vivo metabolism of compounds, the stability of compounds incubated with human liver microsomes in vitro was determined. Human liver microsome preparations were stored at −80° C. and thawed on ice prior to use. The thawed microsomes were diluted to a concentration of 2 mg/mL in 50 mM sodium phosphate, pH 7.4. Reference and test compounds were prepared as 10 mM stocks in 100% DMSO and diluted to 1 mM in acetonitrile before use. Each compound was tested in triplicate as follows:
4 μL of test or reference compound was added to a well of a 24-well microplate and 0.5 mL of 4 mM NADPH added. The plate was then transferred to a shaker for 10 minutes at room temperature. 30 μL of the compound/NADPH solution was transferred to the well of a 96-well microplate and incubated at 37° C. for 5 minutes. 30 μL of human liver microsomes (pre-incubated at 37° C. for 5 minutes) was added to the well containing the compound/NADPH solution and the plate incubated for the selected period of time (typically 0 or 30 minutes). The reaction was stopped by adding 60 μL of ice cold […] trichloroacetic acid. The plate was centrifuged at 1000 rpm for 5 minutes at room temperature and the supernatant transferred to the well of a new 96-well V-bottomed microplate for mass spectrometric analysis.
Samples were analyzed by TSQ Quantum Discovery Tandem Mass Spectrometer and Surveyor Liquid Chromatogram (Thermo, Hemel-Hempstead, UK). 10 μL of each sample was injected in a mobile phase consisting of 60%:40% methanol:5 mM ammonium acetate at a flow rate of 0.5 mL/minute. The column used was a BDS hypersil, C18, 50×2.1 mm with a 5 μm particle size.
Each compound was tuned with a spray voltage of 3000 V and a capillary temperature of 300° C. and values for tube lens, CID and product ions were determined.
The peak area for each compound was measured in triplicate for the 0 and 30 minute samples and the average of each was reported. The percentage remaining after 30 minutes was calculated as the average peak area of the sample after 30 minutes divided by the average peak area at 0 minutes. The RSD was 10% or lower for each compound.

[2] = HEK293, potency groups, read-out: IC50 for 11β-HSD1 (HEK293)
[3] = HEK293 cells transfected with human 11β-HSD1, first value in cell, read-out: IC50 for 11β-HSD1 (HEK293)
[4] = HEK293 cells, value marked * in brackets, read-out: IC50 for 11β-HSD1 (HEK293), (*) average of at least two individual experiments

## O=C(c1csc(-c2cn[nH]c2)c1)N1C2CCC1CC(O)(c1ncccn1)C2 (stereo not drawn) [XX-20, (3-Hydroxy-3-pyrimidin-2-yl-8-aza-bicyclo[3.2.1]oct-8-yl)-[5-(1H-pyrazol-4-yl)-thiophen-3-yl]-methanone]
Human 11β-HSD1; [2]
  IC50: ≤ 100 nM
Human 11β-HSD1; [3]
  IC50: 67 nM
Human 11β-HSD1; [4]
  IC50: 42 nM
Pharmacokinetics in rat
  bioavailability: 41 to 100%
  clearance: < 25 mL/min/kg
[1]
  % Parent Remaining at 30 min: +++ (61-100% +++)

## O=C(c1csc(-c2cn[nH]c2)c1)N1C2CCC1CC(O)(c1nccs1)C2 (stereo not drawn) [XX-29]
Human 11β-HSD1; [2]
  IC50: ≤ 100 nM
Human 11β-HSD1; [3]
  IC50: 33 nM
Human 11β-HSD1; [4]
  IC50: 31 nM
Pharmacokinetics in rat
  bioavailability: 41 to 100%
  clearance: < 25 mL/min/kg
[1]
  % Parent Remaining at 30 min: +++ (61-100% +++)
